One data set concerns HBsAg. The data set is described as follows: PHH natural infection assay, HBsAg (alphalisa). It counts as cell-based, HBV. Conditions: Hepatitis B virus, Hepatocyte, read-out: HBsAg IC50, HBV-infected primary human hepatocytes, supernatant, alphalisa. The method, then:
(§1) Detailed procedures regarding primary human hepatocyte (PHH) HBV natural infection assay are described as below. One tube of frozen PHH (10 million cells) is thawed in 37° C. water bath and then transferred to 20 mL of PHH thawing medium (Sigma, InVitroGRO HT Medium, Cat. S03319) with gently mixing. The cells were then centrifuged at […] for 5 min, the supernatant was discarded and the tube was refilled with 25 mL of PHH plating medium (Sigma, InVitroGRO CP Medium, Cat. S03317). The tube was shaken very gently to re-suspend all cells, and then 50 μL of cells were transferred to each well 384-well collagen I coated plate with appropriate liquid handling equipment, e.g. Integra VIAFLO384 or Agilent Bravo. The cells were then cultured for 24 hours in a cell incubator. For HBV infection, after PHH attachment on the culture plate, the plating medium was removed and replenished with PHH culture medium containing HBV virus. The PHH culture medium was prepared with Dulbecco's Modified Eagle Medium (DMEM)/F12 (1:1 in volume ratio) containing 10% fetal bovine serum (Gibco, Cat. 10099141), 5 ng/mL human epidermal growth factor (Gibco, Cat.PHG0311L), 20 ng/mL dexamethasone (Sigma, Cat.D4902-100 mg), 250 ng/mL human recombinant insulin (Gibco, Cat.41400045) and 100 U/mL penicillin. HBV virus at 200 genome equivalent (GE) per cell with 4% PEG8000 (Sigma, Cat.P1458) containing culture medium were added to the PHH culture medium for infection. The cells were then cultured for 24 hours in cell incubator. Then the cell culture supernatant was removed. The HBV-infected PHH were cultured with sandwich culture method with PHH culture medium containing […] and 0.25 mg/mL matrix gel for 72 hours. The supernatant was then refreshed with PHH culture medium containing different concentrations of testing compounds for two times with 72-hour interval. At the end of treatment, the supernatant was collected for viral markers measurements, including HBsAg, HBeAg, HBV DNA and cytotoxicity. HBsAg and HBeAg were detected using alphalisa method using their specific antibodies. For HBV DNA detection, HBV DNA Quantitative Fluorescence Diagnostic Kit (Sansure Biotech Inc.) was used following the manufacture's protocol. Cytotoxicity was determined using Cell Counting Kit-8 (CCK8, Dojindo Molecular Technologies, Inc.).
(§2) The compounds of the present invention were tested for their capacity to inhibit HBsAg and HBeAg as described herein.
(Alpha assays give light when donor and acceptor beads are brought close together.)

The test system of a further data set is HBeAg. Briefly: PHH natural infection assay, HBeAg (alphalisa). It counts as cell-based, HBV. The conditions noted are these: Hepatitis B virus, Hepatocyte, read-out: HBeAg IC50, HBV-infected primary human hepatocytes, supernatant, alphalisa. As to the method: as §1, §2
Data set [1] is described as follows: Cytotoxicity in PHH natural infection assay (Cell Counting Kit-8). The conditions noted are these: HBV-infected primary human hepatocytes, CCK8. It counts as cell-based. As to the method:
as §1

These results are taken from patent US20230286968A1, “ARYLOXAZOLO SPIRAL RING DERIVATIVES FOR THE TREATMENT AND PROPHYLAXIS OF HEPATITIS B VIRUS INFECTION” (Hoffmann-La Roche Inc., priority 2020, published 2023).

What is called IC50 is the point on the concentration scale where inhibition reaches its midpoint. A word on the CC50: it is the concentration that lowers cell viability or growth by half. A high value points to better tolerance by the cells. `Cc1csc(-c2cc(C(=O)NC3CC4(C3)CC(c3nc5cc(Cl)ccc5o3)C4)ccn2)n1` (stereo not drawn) [Example 14, N-[6-(5-chloro-1,3-benzoxazol-2-yl)spiro[3.3]heptan-2-yl]-2-(4-methylthiazol-2-yl)pyridine-4-carboxamide]: the figures for the IC50 in the data set with HBsAg and with HBeAg were 6.36 µM and 4.08 µM, respectively. For the same compound, in data set [1], the CC50 at 144 h is greater than 10 µM.

Regarding `Cc1cnc(-c2cc(C(=O)NC3CC4(C3)CC(c3nc5cc(Cl)ccc5o3)C4)ccn2)s1` (stereo not drawn) [Example 15, N-[6-(5-chloro-1,3-benzoxazol-2-yl)spiro[3.3]heptan-2-yl]-2-(5-methylthiazol-2-yl)pyridine-4-carboxamide], the figures for the IC50 with HBsAg and with HBeAg were 2.25 µM and 1.47 µM, respectively. This compound also yielded a CC50 at 144 h in data set [1] greater than 10 µM.

With `O=C(NC1CC2(C1)CC(c1nc3cc(Cl)ccc3o1)C2)c1ccnc(-c2nccs2)c1` (stereo not drawn) [Example 16, N-[6-(5-chloro-1,3-benzoxazol-2-yl)spiro[3.3]heptan-2-yl]-2-thiazol-2-yl-pyridine-4-carboxamide], the figures for the IC50 in the data set with HBsAg and with HBeAg were 5.78 µM and 4.73 µM, respectively. This compound returned a CC50 at 144 h in data set [1] greater than 10 µM.

For the compound `COc1cc(C(=O)NC2CC3(C2)CC(c2nc4cc(Cl)ccc4o2)C3)ccn1` (stereo not drawn) [Example 17, N-[6-(5-chloro-1,3-benzoxazol-2-yl)spiro[3.3]heptan-2-yl]-2-methoxy-pyridine-4-carboxamide], the IC50 with HBsAg was 5.45 µM; in the data set on HBeAg, 4.48 µM. This compound also registered a CC50 at 144 h in data set [1] greater than 10 µM.

For `N#Cc1cc(C(=O)NC2CC3(C2)CC(c2nc4cc(Cl)ccc4o2)C3)ccn1` (stereo not drawn) [Example 18, N-[6-(5-chloro-1,3-benzoxazol-2-yl)spiro[3.3]heptan-2-yl]-2-cyano-pyridine-4-carboxamide], the figures for the IC50 in the data set with HBsAg and in the data set with HBeAg were 4.86 µM and 4.87 µM, respectively. The same compound had a CC50 at 144 h in data set [1] greater than 10 µM.

Take `NS(=O)(=O)c1cc(C(=O)NC2CC3(C2)CC(c2nc4cc(Cl)ccc4o2)C3)ccn1` (stereo not drawn) [Example 19, N-[6-(5-chloro-1,3-benzoxazol-2-yl)spiro[3.3]heptan-2-yl]-2-sulfamoyl-pyridine-4-carboxamide]: the IC50 came out at 2.25 µM in the data set with HBsAg and 1.24 µM in the data set with HBeAg. In data set [1], this compound had a half-maximal cytotoxic concentration (CC50) at 144 h greater than 10 µM.

As for `CC(C)Oc1cc(C(=O)NC2CC3(C2)CC(c2nc4cc(Cl)ccc4o2)C3)ccn1` (stereo not drawn) [Example 20, N-[6-(5-chloro-1,3-benzoxazol-2-yl)spiro[3.3]heptan-2-yl]-2-isopropoxy-pyridine-4-carboxamide], the IC50 was 1.92 µM with HBsAg and 1.26 µM in the data set on HBeAg. Further, the CC50 at 144 h in data set [1] was greater than 10 µM.

Consider `O=C(NC1CC2(C1)CC(c1nc3cc(Cl)ccc3o1)C2)c1ccnc(C(F)(F)F)c1` (stereo not drawn) [Example 21, N-[6-(5-chloro-1,3-benzoxazol-2-yl)spiro[3.3]heptan-2-yl]-2-(trifluoromethyl)pyridine-4-carboxamide], for which the values for the IC50 with HBsAg and in the data set with HBeAg were 1.82 µM and 1.98 µM, respectively. In data set [1], this compound yielded a CC50 at 144 h of 82 µM.

For the compound `CNS(=O)(=O)Nc1cc(C(=O)NC2CC3(C2)CC(c2nc4cc(Cl)ccc4o2)C3)ccn1` (stereo not drawn) [Example 22, N-[6-(5-chloro-1,3-benzoxazol-2-yl)spiro[3.3]heptan-2-yl]-2-(methylsulfamoylamino)pyridine-4-carboxamide], the concentration for half-maximal inhibition (IC50) turned out to be 4.94 µM in the data set on HBsAg and 4.38 µM in the data set on HBeAg. The same compound yielded a CC50 at 144 h in data set [1] greater than 10 µM.

For `CS(=O)(=O)c1cc(C(=O)NC2CC3(C2)CC(c2nc4cc(Cl)ccc4o2)C3)ccn1` (stereo not drawn) [Example 23, N-[6-(5-chloro-1,3-benzoxazol-2-yl)spiro[3.3]heptan-2-yl]-2-methylsulfonyl-pyridine-4-carboxamide], the IC50 in the data set on HBsAg is 0.57 µM; in the data set with HBeAg, 0.49 µM. Also, the CC50 at 144 h in data set [1] is 94.1 µM.

As for `CS(=O)(=O)c1cncc(C(=O)NC2CC3(C2)CC(c2nc4cc(Cl)ccc4o2)C3)c1` (stereo not drawn) [Example 24, N-[6-(5-chloro-1,3-benzoxazol-2-yl)spiro[3.3]heptan-2-yl]-5-methylsulfonyl-pyridine-3-carboxamide], the results for the IC50 in the data set with HBsAg and with HBeAg were 5.99 µM and 3.73 µM, respectively. Further, the CC50 at 144 h in data set [1] is greater than 100 µM.

As to `O=C(NC1CC2(C1)CC(c1nc3cc(Cl)ccc3o1)C2)c1ccnc(S(=O)(=O)C2COC2)c1` (stereo not drawn) [Example 25, N-[6-(5-chloro-1,3-benzoxazol-2-yl)spiro[3.3]heptan-2-yl]-2-(oxetan-3-ylsulfonyl)pyridine-4-carboxamide], the IC50 in the data set with HBsAg was 4.18 µM; with HBeAg, 2.53 µM. In addition, the CC50 at 144 h in data set [1] is greater than 10 µM.

On to `CCS(=O)(=O)c1cc(C(=O)NC2CC3(C2)CC(c2nc4cc(Cl)ccc4o2)C3)ccn1` (stereo not drawn) [Example 26, N-[6-(5-chloro-1,3-benzoxazol-2-yl)spiro[3.3]heptan-2-yl]-2-ethylsulfonyl-pyridine-4-carboxamide], for which the values for the IC50 in the data set on HBsAg and with HBeAg were 0.28 µM and 0.19 µM, respectively. In addition, half-maximal cytotoxicity in data set [1] (CC50 at 144 h) was put at 74.1 µM.

Regarding `CC(C)(C)C(=O)NC1CC2(C1)CC(c1nc3cc(Cl)ccc3o1)C2` (stereo not drawn) [Example 27, N-[6-(5-chloro-1,3-benzoxazol-2-yl)spiro[3.3]heptan-2-yl]-2,2-dimethyl-propanamide], the IC50 turned out to be 9.77 µM in the data set with HBsAg and 9.75 µM with HBeAg. In addition, the CC50 at 144 h in data set [1] was greater than 100 µM.

As for `CC(C)CC(=O)NC1CC2(C1)CC(c1nc3cc(Cl)ccc3o1)C2` (stereo not drawn) [Example 28, N-[6-(5-chloro-1,3-benzoxazol-2-yl)spiro[3.3]heptan-2-yl]-3-methyl-butanamide], the IC50 with HBsAg turned out to be 2.54 µM; in the data set on HBeAg it was 2.28 µM. Besides, the CC50 at 144 h in data set [1] is greater than 100 µM.

For `O=C(NC1CC2(C1)CC(c1nc3cc(Cl)ccc3o1)C2)C1CC(C(F)(F)F)C1` (stereo not drawn) [Example 29, N-[6-(5-chloro-1,3-benzoxazol-2-yl)spiro[3.3]heptan-2-yl]-3-(trifluoromethyl)cyclobutanecarboxamide], the IC50 in the data set on HBsAg is 4.67 µM; with HBeAg, 3.82 µM. In data set [1], this compound had a CC50 at 144 h greater than 100 µM.

On to `CN1CC(C(=O)NC2CC3(C2)CC(c2nc4cc(Cl)ccc4o2)C3)CC1=O` (stereo not drawn) [Example 30, N-[6-(5-chloro-1,3-benzoxazol-2-yl)spiro[3.3]heptan-2-yl]-1-methyl-5-oxo-pyrrolidine-3-carboxamide], for which the IC50 turned out to be 3.89 µM in the data set on HBsAg and 2.65 µM with HBeAg. The same compound came in with a CC50 at 144 h in data set [1] greater than 100 µM.

On to `CC(C)(C)N1CC(C(=O)NC2CC3(C2)CC(c2nc4cc(Cl)ccc4o2)C3)CC1=O` (stereo not drawn) [Example 31, 1-tert-butyl-N-[6-(5-chloro-1,3-benzoxazol-2-yl)spiro[3.3]heptan-2-yl]-5-oxo-pyrrolidine-3-carboxamide], for which the IC50 in the data set with HBsAg worked out at 7.87 µM; with HBeAg, 5.24 µM. In data set [1], this compound had a CC50 at 144 h greater than 100 µM.

On to `O=C(NC1CC2(C1)CC(c1nc3cc(Cl)ccc3o1)C2)C1CC(=O)N(c2ccccc2)C1` (stereo not drawn) [Example 32, N-[6-(5-chloro-1,3-benzoxazol-2-yl)spiro[3.3]heptan-2-yl]-5-oxo-1-phenyl-pyrrolidine-3-carboxamide], for which the figures for the IC50 in the data set with HBsAg and in the data set with HBeAg were 8.27 µM and 5.44 µM, respectively. This compound also showed a CC50 at 144 h in data set [1] greater than 100 µM.

As for `Cc1c(Cl)cccc1N1CC(C(=O)NC2CC3(C2)CC(c2nc4cc(Cl)ccc4o2)C3)CC1=O` (stereo not drawn) [Example 33, N-[6-(5-chloro-1,3-benzoxazol-2-yl)spiro[3.3]heptan-2-yl]-1-(3-chloro-2-methyl-phenyl)-5-oxo-pyrrolidine-3-carboxamide], the half-maximal inhibitory concentration (IC50) came out at 3.24 µM with HBsAg and 3.07 µM with HBeAg. Besides, in data set [1], half-maximal cytotoxicity (CC50 at 144 h) was put at 42.8 µM.

On to `CN1CCC(C(=O)NC2CC3(C2)CC(c2nc4cc(Cl)ccc4o2)C3)CC1=O` (stereo not drawn) [Example 34, N-[6-(5-chloro-1,3-benzoxazol-2-yl)spiro[3.3]heptan-2-yl]-1-methyl-2-oxo-piperidine-4-carboxamide], for which the IC50 came to 8.69 µM with HBsAg and 4.42 µM in the data set on HBeAg. In data set [1], this compound returned a CC50 at 144 h greater than 100 µM.

Turning to `CN1CC(CC(=O)NC2CC3(C2)CC(c2nc4cc(Cl)ccc4o2)C3)CC1=O` (stereo not drawn) [Example 35, N-[6-(5-chloro-1,3-benzoxazol-2-yl)spiro[3.3]heptan-2-yl]-2-(1-methyl-5-oxo-pyrrolidin-3-yl)acetamide], the values for the IC50 with HBsAg and in the data set on HBeAg were 9.93 µM and 7.28 µM, respectively. The same compound showed a CC50 at 144 h in data set [1] greater than 10 µM.
